# Data: patent US7741327B2 (Hoffmann-La Roche Inc., priority 2008, dated 2010)
# Target: T1, Recombinant human liver GK1 (GST-GK) (Homo sapiens, UniProt P35557)
# T1 construct: made in house; host or cells: E. coli
# T1 sequence (P35557 1-466 isoform P35557-2): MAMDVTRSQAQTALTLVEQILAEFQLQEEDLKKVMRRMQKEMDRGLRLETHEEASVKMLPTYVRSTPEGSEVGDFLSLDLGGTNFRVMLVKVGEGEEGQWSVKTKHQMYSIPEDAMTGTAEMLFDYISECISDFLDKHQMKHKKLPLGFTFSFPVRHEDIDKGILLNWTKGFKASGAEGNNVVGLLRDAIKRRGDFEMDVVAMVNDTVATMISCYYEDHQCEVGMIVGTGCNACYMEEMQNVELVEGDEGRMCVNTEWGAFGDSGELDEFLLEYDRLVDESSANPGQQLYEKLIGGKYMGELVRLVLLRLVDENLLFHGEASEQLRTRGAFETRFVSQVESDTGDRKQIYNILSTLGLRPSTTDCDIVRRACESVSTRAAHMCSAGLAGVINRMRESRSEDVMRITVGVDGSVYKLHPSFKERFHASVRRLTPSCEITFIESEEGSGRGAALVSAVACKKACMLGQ
# Assay: In vitro glucokinase activity (G6PDH-coupled NADH assay)
# Assay type: biochemical
# Conditions: 30° C., 5 mM D-glucose, 10% DMSO
# Method in brief: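 GST-tagged human liver GK1 from E. coli, assayed at 30° C in 25 mM Hepes pH 7.1 with 5 mM D-glucose, 1 mM ATP, 1.8 mM NAD and G6PDH coupling, 10% DMSO final; reaction started with enzyme after 10 min preincubation. NADH formation followed at OD340; SC1.5 is activator concentration giving 50% increase over DMSO control rate.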
row,Compound,SC1.5 (concentration of activator that produced a 50% increase in the activity of GK) [µM]
1,"CC(C)C[C@@H](C(=O)Nc1nc(C2CC2)ns1)N1CC(Oc2ccccc2Cl)=CC1=O [Example 105, (S)-2-[4-(2-Chloro-phenoxy)-2-oxo-2,5-dihydro-pyrrol-1-yl]-4-methyl-pentanoic acid (3-cyclopropyl-[1,2,4]thiadiazol-5-yl)-amide]",> 30
2,"Cc1ccccc1OC1=CC(=O)N([C@@H](CC(C)C)C(=O)Nc2ccn(CCO[Si](C)(C)C(C)(C)C)n2)C1 [Example 121, (S)-4-Methyl-2-(2-oxo-4-o-tolyloxy-2,5-dihydro-pyrrol-1-yl)-pentanoic acid {1-[2-(t-butyl-dimethyl-silanyloxy)-ethyl]-1H-pyrazol-3-yl}-amide]",0.746
3,COC1=CC(=O)N([C@@H](CC2CCCC2)C(=O)Nc2nc(C)ns2)C1 [Example 4],6.186
4,"CC(C)(O)Cn1ccc(NC(=O)C(Cc2c(F)cccc2F)N2CC(Oc3c(F)cccc3F)=CC2=O)n1 (centres unmarked) [Example 59, 2-[4-(2,6-Difluoro-phenoxy)-2-oxo-2,5-dihydro-pyrrol-1-yl]-3-(2,6-difluoro-phenyl)-N-[1-(2-hydroxy-2-methyl-propyl)-1-H-pyrazol-3-yl]-propionamide]",1.082
5,"CSc1ccccc1OC1=CC(=O)N([C@@H](CC2CCCCC2)C(=O)Nc2ccn(CC(C)(C)O)n2)C1 [Example 196, (S)-3-cyclohexyl-N-[1-(2-hydroxy-2-methyl-propyl)-1H-pyrazol-3-yl]-2-[4-(2-methylsulfanyl-phenoxy)-2-oxo-2,5-dihydro-pyrrol-1-yl]-propionamide]",0.007
6,"CC(C)C[C@@H](C(=O)Nc1ccn(C)n1)N1CC(Oc2cccc(CC(C)(C)O)c2)=CC1=O [Example 235, (S)-2-{4-[3-(2-Hydroxy-2-methyl-propyl)-phenoxy]-2-oxo-2,5-dihydro-pyrrol-1-yl}-4-methyl-pentanoic acid (1-methyl-1H-pyrazol-3-yl)-amide]",2.061
7,"CC(C)(O)Cn1ccc(NC(=O)[C@H](CC2CCCCC2)N2CC(Oc3c(F)cccc3F)=CC2=O)n1 [Example 36, (S)-3-Cyclohexyl-2-[4-(2,6-difluoro-phenoxy)-2-oxo-2,5-dihydro-pyrrol-1-yl]-N-[1-(2-hydroxy-2-methyl-propyl)-1H-pyrazol-3-yl]-propionamide]",0.028
8,"CC(C)C[C@@H](C(=O)Nc1ccn(C[C@@H]2COC(C)(C)O2)n1)N1CC(Oc2ccccc2Br)=CC1=O [Example 136, (S)-2-[4-(2-Bromo-phenoxy)-2-oxo-2,5-dihydro-pyrrol-1-yl]-4-methyl-pentanoic acid [1-((R)-2,2-dimethyl-[1,3]dioxolan-4-yl-methyl)-1H-pyrazol-3-yl]-amide]",2.013
9,"CC(C)C[C@@H](C(=O)Nc1ccn(CC(C)(C)O)n1)N1CC(Oc2c(F)cccc2F)=CC1=O [Example 45, (S)-2-[4-(2,6-difluoro-phenoxy)-2-oxo-2,5-dihydro-pyrrol-1-yl]-4-methyl-pentanoic acid [1-(2-hydroxy-2-methyl-propyl)-1H-pyrazol-3-yl]-amide]",0.198
10,"Cl.O=C(Nc1ccn(C[C@@H](O)CO)n1)[C@H](CC1CCCCC1)N1CC(Oc2c(F)ccc(Cl)c2F)=CC1=O [Example 76, (S)-2-[4-(3-Chloro-2,6-difluoro-phenoxy)-2-oxo-2,5-dihydro-pyrrol-1-yl]-3-cyclohexyl-N-[1-((R)-2,3-dihydroxy-propyl)-1H-pyrazol-3-yl]-propionamide Hydrochloride]",0.017
11,"CC(C)C[C@@H](C(=O)Nc1ccn(C[C@H](O)CO)n1)N1CC(Oc2ccccc2Cl)=CC1=O [Example 175, (S)-2-[4-(2-Chloro-phenoxy)-2-oxo-2,5-dihydro-pyrrol-1-yl]-4-methyl-pentanoic acid [1-((S)-2,3-dihyrxy-propyl)-1H-pyrazol-3-yl]-amide]",0.138
12,"COC(=O)c1ccc(NC(=O)[C@H](CC2CCOCC2)N2CC(Oc3c(F)cccc3F)=CC2=O)nc1 [Example 41, (S)-6-[2-[4-(2,6-difluoro-phenoxy)-2-oxo-2,5-dihydro-pyrrol-1-yl]-3-(tetrahydro-pyran-4-yl)-propionylamino]-nicotinic acid methyl ester]",0.071
13,"CC(C)C[C@@H](C(=O)Nc1ccn(C[C@@H](O)C[C@@H](O)CC(=O)O)n1)N1CC(Oc2ccccc2Cl)=CC1=O [Example 194, (3R,5S)-6-(3-{(S)-2-[4-(2-chloro-phenoxy)-2-oxo-2,5-dihydro-pyrrol-1-yl]-4-methylpentanoylamino}-pyrazol-1-yl)-3,5-dihydroxy-hexanoic acid]",0.695
14,"COc1ccc(Cc2nsc(NC(=O)[C@H](CC(C)C)N3CC(Oc4ccccc4Cl)=CC3=O)n2)cc1 [Example 109, (S)-2-[4-(2-Chloro-phenoxy)-2-oxo-2,5-dihydro-pyrrol-1-yl]-4-methyl-pentanoic acid [3-(4-methoxy-benzyl)-[1,2,4]thiadiazol-5-yl]-amide]",> 30
15,"CC(C)C[C@@H](C(=O)Nc1ccn(C[C@@H](O)CO)n1)N1CC(Oc2c(F)ccc(OC(C)C)c2F)=CC1=O [Example 134, (S)-2-[4-(2,6-Difluoro-3-isopropoxy-phenoxy)-2-oxo-2,5-dihydro-pyrrol-1-yl]-4-methyl-pentanoic acid [1-((R)-2,3-dihydroxy-propyl)-1H-pyrazol-3-yl]-amide]",0.069
16,"CC(C)C[C@@H](C(=O)Nc1ccn(C)n1)N1CC(Oc2cccc(C(C)(C)O)c2F)=CC1=O [Example 143, (S)-2-{4-[2-Fluoro-3-(1-hydroxy-1-methyl-ethyl)-phenoxy]-2-oxo-2,5-dihydro-pyrrol-1-yl}-4-methyl-pentanoic acid (1-methyl-1H-pyrazol-3-yl)-amide]",2.089
17,"CC[C@@H](C)C[C@H](C(=O)Nc1ccn(C[C@@H](O)CO)n1)N1CC(Oc2ccccc2Cl)=CC1=O (single isomer, unassigned) [Example 254]",16.154
18,"CSCC[C@@H](C(=O)Nc1ccn(C[C@@H](O)CO)n1)N1CC(Oc2ccccc2Cl)=CC1=O [Example 223, (S)-2-[4-(2-Chloro-phenoxy)-2-oxo-2,5-dihydro-pyrrol-1-yl]-N-[1-((R)-2,3-dihydroxy-propyl)-1H-pyrazol-3-yl]-4-methylsulfanyl-butyramide]",0.303
19,"COc1ccccc1OC1=CC(=O)N([C@@H](CC2CCCCC2)C(=O)Nc2ccn(C[C@H](O)CO)n2)C1 [Example 30, (S)-3-Cyclohexyl-N-[1-((S)-2,3-dihydroxy-propyl)-1H-pyrazol-3-yl]-2-[4-(2-methoxy-phenoxy)-2-oxo-2,5-dihydro-pyrrol-1-yl]-propionamide]",0.031
20,"O=C(Nc1ccn(C[C@@H](O)CO)n1)[C@H](CC1CCC1)N1CC(Oc2ccccc2Cl)=CC1=O [Example 176, (S)-2-[4-(2-chloro-phenoxy)-2-oxo-2,5-dihydro-pyrrol-1-yl]-3-cyclobutyl-N-[1-((R)-2,3-dihydroxy-propyl)-1H-pyrazol-3-yl]-propionamide]",0.05
21,"O=C(Nc1ccn(C[C@@H](O)CO)n1)[C@H](CC1CCCCC1)N1CC(Oc2ccccc2Cl)=CC1=O [Example 63, (S)-2-[4-(2-Chloro-phenoxy)-2-oxo-2,5-dihydro-pyrrol-1-yl]-3-cyclohexyl-N-[1-((R)-2,3-dihydroxy-propyl)-1-H-pyrazol-3-yl]-propionamide]",0.009
22,"O=C(O)c1ccc(NC(=O)[C@H](CC2CCCCC2)N2CC(Oc3c(F)cccc3Cl)=CC2=O)nc1 [Example 70, 6-{(S)-2-[4-(2-Chloro-6-fluoro-phenoxy)-2-oxo-2,5-dihydro-pyrrol-1-yl]-3-cyclohexyl-propionylamino}-nicotinic acid]",0.048
23,"CC(C)C[C@@H](C(=O)Nc1ccn(C[C@@H](O)CO)n1)N1CC(Oc2cccc(CC(C)(C)O)c2)=CC1=O [Example 238, (S)-2-{4-[3-(2-Hydroxy-2-methyl-propyl)-phenoxy]-2-oxo-2,5-dihydro-pyrrol-1-yl}-4-methyl-pentanoic acid [1-((R)-2,3-dihydroxy-propyl)-1H-pyrazol-3-yl]-amide]",1.125
24,"CC(C)OC1=CC(=O)N([C@@H](CC2CCCCC2)C(=O)Nc2ccn(CC(C)(C)O)n2)C1 [Example 25, (S)-3-Cyclohexyl-N-[1-(2-hydroxy-2-methyl-propyl)-1H-pyrazol-3-yl]-2-(4-isopropoxy-2-oxo-2,5-dihydro-pyrrol-1-yl)-propionamide]",1.872

# Same assay, conditions: at 30 μM test compound
row,Compound,fold act. @ 30 μM [fold]
1,"CC(C)C[C@@H](C(=O)Nc1nc(C2CC2)ns1)N1CC(Oc2ccccc2Cl)=CC1=O [Example 105, (S)-2-[4-(2-Chloro-phenoxy)-2-oxo-2,5-dihydro-pyrrol-1-yl]-4-methyl-pentanoic acid (3-cyclopropyl-[1,2,4]thiadiazol-5-yl)-amide]",1.4
2,"COc1ccc(Cc2nsc(NC(=O)[C@H](CC(C)C)N3CC(Oc4ccccc4Cl)=CC3=O)n2)cc1 [Example 109, (S)-2-[4-(2-Chloro-phenoxy)-2-oxo-2,5-dihydro-pyrrol-1-yl]-4-methyl-pentanoic acid [3-(4-methoxy-benzyl)-[1,2,4]thiadiazol-5-yl]-amide]",1.3
